{"source": "paper PMC13538185", "about": "“The PSD-95 inhibitor NA-1 is delivered to the brain upon nasal administration with uptake into the olfactory bulb improved by co-administration with the cell-penetrating peptides lowPro and Tat” (Drug Delivery and Translational Research, 2025)", "key": {"[1]": {"test_system": "primary porcine olfactory epithelial monolayers", "assay": "Transport of NA-1 alone or co-administered with cell-penetrating peptides across primary porcine olfactory epithelial monolayers (ICP-MS of selenium)", "format": "in vitro ADME", "text": "Oxygen was applied as reaction gas."}, "NMRI mice [2]": {"test_system": "NMRI mice", "conditions": "nasal"}, "[3]": {"assay": "not given", "remark": "listed apart in the source"}, "[4]": {"assay": "not given", "remark": "listed apart in the source"}, "[5]": {"assay": "Biodistribution after intravenous bolus injection to mice (reference group)", "conditions": "mouse, in vivo, iv, 3 nmol/g body weight", "method": "(§1) In an intravenous reference group, NA-1 was administered as a bolus injection (3 nmol/g body weight in 0.9% NaCl) into the tail vein. After 60 min compound circulation, the animals were transcardially perfused with 0.01 M PBS (pH 7.4). The brain, olfactory bulb, heart, lungs, spleen, kidneys, liver, and 2–3 cm of the upper part of duodenum were collected in 2 mL tubes and stored at -70 °C until analysis. […] The homogenate was spun down for 10 min at 14,000 rpm and 4 °C in a Sigma 1–15 K centrifuge (DJB Labcare, Newport Pagnell, England). […] Biodistribution of NA-1 was assessed by measuring the selenium content in tissue digested in HNO3 for 3–5 days at room temperature (50 mg tissue per 0.5 mL HNO3 for heart, lungs, spleen, kidney, and duodenum or 0.2 mL HNO3 for olfactory bulb and 1 mL HNO3 for the remaining brain. The tissue samples were spun down for 5 min at 10,000 rpm in a Sigma 1–15 K centrifuge (DJB Labcare, Newport Pagnell, England) before dilution (1:5–1:32) in 5% methanol with 0.1% trifluoroacetic acid in ultrapure water. The samples were analyzed with ICP-MS as described for transport studies, but with a 20 µL injection volume and a 2 min run time."}, "NMRI mice [6]": {"test_system": "NMRI mice", "assay": "Biodistribution after intravenous bolus injection to mice (reference group)", "conditions": "mice, 3 nmol/g, 1 h", "method": "as §1"}, "[7]": {"test_system": "primary porcine olfactory epithelial cells", "assay": "Cellular metabolic activity (XTT assay)", "format": "cell-based", "conditions": "4 h incubation with 50 or 100 µM peptide in transport medium, 37 °C, N = 3, n = 3", "description": "The cellular metabolic activity was assessed on olfactory epithelial cells cultured in a 96-well plate for 48 h using a commercially available sodium 3´-[1-(phenylaminocarbonyl)-3,4-tetrazolium]-bis (4-methoxy-6-nitro) benzene sulfonic acid hydrate (XTT) assay as directed by the manufacturer. […] Cells incubated with transport medium (MEM w/o phenol red, 0.05% BSA, 0.1 U/mL Penicillin, 0.1 µg/mL Streptomycin) without peptides served as live cell controls and wells with transport medium but no cells served as dead cell controls. After peptide incubation, the cells were gently washed twice with transport medium before incubation with 100 µL transport medium and 50 µL XTT labelling mixture (electron-coupling reagent: XTT labelling reagent 1:50) for 1 h at 37 °C with horizontal shaking (90 rpm). Samples (100 µL) from each well were transferred to a new 96-well plate and the absorbance was measured at 466 nm using a SPECTROstar Nano plate reader (BMG Labtech, Ortenberg, Germany). The relative cellular viability was calculated by Eq. 1:1"}, "[8]": {"test_system": "primary porcine olfactory epithelial monolayers", "conditions": "ALI 20-21 days, apical to basolateral, 0.5 mg/mL in transport medium (MEM, 0.05% BSA), 37 °C, fluorescence read-out, mean (N = 3-4, n = 3)", "method": "Transport studies were performed on olfactory epithelial cell monolayers cultured for 20 or 21 days under ALI conditions. […] 50 µL samples were withdrawn at time points 0.5, 1, 1.5, 2, 3, 4, and 24 h into black clear-bottom 96-well plates. The sampling volume was immediately replaced with 37 °C transport medium. […] The experiments with NA-1 and the cell-penetrating peptides were initiated by gently applying 300 µL samples (50 µM NA-1 alone or co-administered with 50 µM Tat, LowPro, or PenShuf) in 37 °C transport buffer to the apical compartment. 75 µL samples were withdrawn at time points 1, 2, 3, and 16 h into glass vials. The sampling volume was immediately replaced with 37 °C transport buffer. NA-1 was labelled with selenomethionine (M^Se) between the Tat and the NR2B9c moiety to facilitate analysis through selenium quantification using inductively coupled plasma mass spectrometry (ICP-MS). For selenium analysis, the samples were subjected to flow injection analysis on a Dionex Ultimate 3000 UPLC (Thermo Fischer Scientific, Germering, Germany) with ICP-MS detection using an Agilent 8800 Triple Quad equipped with a 2.5 mm quartz torch with platinum sampler -and skimmer cones (Agilent Technologies, Santa Clara, CA, USA)."}, "[9]": {"test_system": "primary porcine olfactory epithelial monolayers", "assay": "Transepithelial electrical resistance (TEER) before and after peptide incubation", "format": "cell-based", "conditions": "100 µM peptide, 3 h incubation, N = 3, n = 2", "text": "Thereafter, the cells were equilibrated to RT prior measuring the TEER with a chopstick electrode or in an Endohm-24 cup connected to an Epithelial Volt/Ohm meter (both World Precision Instruments, Sarasota, FL, USA). The measured TEER values were subtracted the resistance across an empty Transwell insert and multiplied with the area of the insert (0.33 cm^2) to obtain the standardized unit Ω⋅cm^2."}, "[10]": {"conditions": "NA-1 alone, 3 nmol/g body weight, 1 h after administration, perfused, ICP-MS of selenium, mean (N = 4-6)"}}}
{"compound": "CC[C@H](C)[C@H](NC(=O)[C@H](CO)NC(=O)[C@H](CO)NC(=O)[C@H](CC(C)C)NC(=O)[C@H](CCCCN)NC(=O)[C@H](CC[Se]C)NC(=O)[C@@H](CCCNC(=N)N)NC(=O)[C@@H](CCCNC(=N)N)NC(=O)[C@@H](CCCNC(=N)N)NC(=O)[C@@H](CCC(N)=O)NC(=O)[C@@H](CCCNC(=N)N)NC(=O)[C@@H](CCCNC(=N)N)NC(=O)[C@@H](CCCCN)NC(=O)[C@@H](CCCCN)NC(=O)[C@@H](CCCNC(=N)N)NC(=O)CNC(=O)[C@H](N)Cc1ccc(O)cc1)C(=O)N[C@@H](CCC(=O)O)C(=O)N[C@@H](CO)C(=O)N[C@@H](CC(=O)O)C(=O)N[C@H](C(=O)O)C(C)C", "note": "[NA-1]", "values": [{"measurement": "Effect of co-administration with PenShuf on barrier permeation of NA-1 at the 16 h time-point", "setting": "[1]; 50 µM NA-1 + 50 µM PenShuf vs NA-1 alone, 16 h, ICP-MS, N = 6, p < 0.0001 one-way ANOVA", "result": "significantly improved"}, {"measurement": "Fold better permeation potential of NA-1 compared to 4 KDa FITC-dextran", "setting": "[1]; ratio of Papp values across primary porcine olfactory monolayers", "result": 3.2, "unit": "fold"}, {"measurement": "Rank order of off-target tissue distribution", "setting": "NMRI mice [2]; 3 nmol/g, 1 h, not affected by co-administration with the cell-penetrating peptides", "result": "kidney > liver > spleen > duodenum > lung > heart"}, {"measurement": "NA-1 accumulation in the olfactory bulb, co-administered with LowPro", "setting": "NMRI mice [2]; NA-1:LowPro 1:1 molar ratio, 3 nmol/g, 1 h, ICP-MS, mean (N = 4-6)", "result": 2.98, "unit": "% administered dose/g"}, {"measurement": "NA-1 accumulation in the olfactory bulb, co-administered with PenShuf", "setting": "NMRI mice [2]; NA-1:PenShuf 1:1 molar ratio, 3 nmol/g, 1 h, ICP-MS, mean (N = 4-6)", "result": 1.63, "unit": "% administered dose/g"}, {"measurement": "NA-1 accumulation in the olfactory bulb, co-administered with Tat", "setting": "NMRI mice [2]; NA-1:Tat 1:1 molar ratio, 3 nmol/g, 1 h, ICP-MS, mean (N = 4-6)", "result": 2.13, "unit": "% administered dose/g"}, {"measurement": "NA-1 accumulation in the olfactory bulb", "setting": "NMRI mice [2]; [10]", "result": 1.38, "unit": "% administered dose/g"}, {"measurement": "NA-1 accumulation in the remaining brain", "setting": "NMRI mice [2]; [10]", "result": 0.54, "unit": "% administered dose/g"}, {"measurement": "Combined amount of NA-1 reaching the olfactory bulb and the brain", "setting": "NMRI mice [2]; NA-1 alone, 1 h, p = 0.15 vs intravenous control", "result": "1.92 % of administered dose/g"}, {"measurement": "apparent permeability (Papp) of NA-1 co-administered with LowPro (× 10^− 6 cm/sec)", "result": 0.22}, {"measurement": "apparent permeability (Papp) of NA-1 co-administered with PenShuf (× 10^− 6 cm/sec)", "setting": "[3]", "result": 0.8}, {"measurement": "apparent permeability (Papp) of NA-1 co-administered with Tat (× 10^− 6 cm/sec)", "setting": "[4]", "result": 0.09}, {"measurement": "tissue uptake at 1 h", "setting": "[5]", "result": 1.57, "unit": "%ID/g"}, {"measurement": "Fold higher amount of NA-1 in duodenum, intravenous vs nasal administration", "setting": "NMRI mice [6]", "result": 4.5, "unit": "fold"}, {"measurement": "Fold higher amount of NA-1 in kidneys, intravenous vs nasal administration", "setting": "NMRI mice [6]", "result": 9.5, "unit": "fold"}, {"measurement": "Fold higher amount of NA-1 in lungs, intravenous vs nasal administration", "setting": "NMRI mice [6]", "result": 2.8, "unit": "fold"}, {"measurement": "Fold higher amount of NA-1 in spleen, intravenous vs nasal administration", "setting": "NMRI mice [6]", "result": 1.6, "unit": "fold"}]}
{"compound": "N=C(N)NCCC[C@H](NC(=O)[C@H](CCCNC(=N)N)NC(=O)[C@H](CCCNC(=N)N)NC(=O)[C@H](CCC(N)=O)NC(=O)[C@H](CCCNC(=N)N)NC(=O)[C@H](CCCNC(=N)N)NC(=O)[C@H](CCCCN)NC(=O)[C@H](CCCCN)NC(=O)[C@H](CCCNC(=N)N)NC(=O)CNC(=O)[C@@H](N)Cc1ccc(O)cc1)C(=O)O", "note": "[Tat]", "values": [{"measurement": "Cellular metabolic activity relative to cell culture media controls", "setting": "[7]", "result": "slight decrease"}]}
{"compound": "O=C([O-])c1ccccc1-c1c2ccc(=O)cc-2oc2cc([O-])ccc12.[Na+].[Na+]", "note": "[sodium fluorescein]", "values": [{"measurement": "Fraction of applied compound permeated the barrier upon 24 h of incubation", "setting": "[8]", "result": 29.3, "unit": "%"}]}
{"compound": "RWFKIQMQIRRWKNKK [PenShuf]", "values": [{"measurement": "Barrier integrity (TEER before vs after incubation), highest applied concentration", "setting": "[9]", "result": "negatively affect the barrier integrity"}]}
